US20260374773A1, “MULTI-CYCLIC IRAK AND FLT3 INHIBITING COMPOUNDS AND USES THEREOF” (CHILDREN'S HOSPITAL MEDICAL CENTER, priority 2022, published 2026)

Experiments:
IRAK4 = biological target: T1, IRAK4 (Homo sapiens, UniProt Q9NWZ3); assay: RBC HotSpot kinase inhibition assay, IRAK4; format: biochemical; details: isolated kinase, 33P-ATP, 2 h
T1 sequence (Q9NWZ3 1-460): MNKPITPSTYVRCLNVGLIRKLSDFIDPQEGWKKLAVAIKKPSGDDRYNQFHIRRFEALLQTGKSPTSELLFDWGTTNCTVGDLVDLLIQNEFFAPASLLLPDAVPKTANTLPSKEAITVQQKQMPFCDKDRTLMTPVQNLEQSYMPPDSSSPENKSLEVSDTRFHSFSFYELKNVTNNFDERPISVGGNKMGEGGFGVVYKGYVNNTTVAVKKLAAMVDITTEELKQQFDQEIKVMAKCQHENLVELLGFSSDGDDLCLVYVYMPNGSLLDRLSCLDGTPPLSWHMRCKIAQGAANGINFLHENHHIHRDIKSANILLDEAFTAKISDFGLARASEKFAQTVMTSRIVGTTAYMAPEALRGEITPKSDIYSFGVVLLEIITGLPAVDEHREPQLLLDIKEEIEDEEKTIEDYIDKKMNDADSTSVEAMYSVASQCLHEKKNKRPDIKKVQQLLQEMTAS
From the text: (§1) This assay uses the isolated kinase enzyme. This assay is very useful for determining competition of the inhibitor for ATP and/or substrates and for measuring the kinetics of enzyme inhibition. […] Unlike kinase binding assays that measure competition for ATP, the HotSpot Kinase Assay is a functional assay that measures catalytic activity; as such it measures relative functional potency regardless of the mechanism of enzyme inhibition. This assay uses the form of the various enzymes that are easiest to express, which may not necessarily be the form of the enzyme that exist in the cell. (Sometimes the carboxy terminus has been truncated to aid in expression, or, if it is a receptor kinase, the enzyme itself is isolated from the other parts of the receptor that are involved in regulating kinase activity.)
(§2) The reagent used was as follows: Base Reaction buffer; 20 mM Hepes (pH 7.5), 10 mM MgCl2, 1 mM EGTA, 0.01% Brij35, 0.02 mg/ml BSA, 0.1 mM Na3VO4, 2 mM DTT, 1% DMSO. Required cofactors were added individually to each kinase reaction.
(§3) The reaction procedure was as follows: • 1) Substrates were prepared in freshly prepared Reaction Buffer. • 2) Any required cofactors were delivered to the substrate solution above. • 3) Kinase was delivered into the substrate solution and gently mixed. • 4) Compounds were delivered in 100% DMSO into the kinase reaction mixture by Acoustic technology (Echo550; nanoliter range), followed by incubation for 20 min at room temp. • 5) ^33P-ATP was delivered into the reaction mixture to initiate the reaction. • 6) The mixture was incubated for 2 hours at room temperature. • 7) Kinase activity was detected by P81 filter-binding method.
as §1, with “Although not wishing to be limited by theory, it is believed that sometimes” for “(Sometimes”, “activity.” for “activity.)”
(§4) The reagent used was as follows: Base Reaction buffer; 20 mM Hepes (pH 7.5), 10 mM MgCl2, 1 mM EGTA, 0.01% Brij35, 0.02 mg/ml BSA, 0.1 mM Na3 VO4, 2 mM DTT, 1% DMSO.
(§5) Required cofactors were added individually to each kinase reaction.
as §3, with “33P-ATP” for “^33P-ATP”

IRAK1 = IRAK1 (Homo sapiens, UniProt P51617); assay: RBC HotSpot kinase inhibition assay, IRAK1; format: biochemical; details: isolated kinase, 33P-ATP, 2 h
From the text: as §1, §2, §3
as §1, with “Although not wishing to be limited by theory, it is believed that sometimes” for “(Sometimes”, “activity.” for “activity.)”
as §4, §5
as §3, with “33P-ATP” for “^33P-ATP”

MOLM14 D835Y cells = assay: MOLM14 D835Y cell viability (Cell Titer Glo); format: cell-based; details: Homo sapiens
Experimental: Both cell lines have activated FLT3 receptors, each of which carry additional resistance mutations in the kinase domain (D835Y and F691L, respectively).
(§6) MOLM14 D835Y and MOLM14 F691L cells were grown in RPMI-1640 media supplemented with 20% fetal bovine serum (FBS). For viability/cytotoxicity assessments, cells were seeded into 1536-well white polystyrene tissue culture-treated Greiner plates using a Multidrop Combi dispenser (ThermoFisher), in final volume 5 μL of growth media per well, at a density of 1000 cells per well. After cell addition, 23 nL of test compound were transferred into individual wells (22 doses tested for each test compound, with a 1:2 dilution series starting at 10 μM) via a 1536 pin-tool. Bortezomib (final concentration 2.3 μM) was used as a positive control for cell cytotoxicity. Plates were incubated for 48 hours at standard incubator conditions covered by a stainless steel gasketed lid to prevent evaporation. 48 hours post compound addition, 3 μL of Cell Titer Glo (Promega) were added to each well and plates were incubated at room temperature for 15 minutes with the stainless-steel lid in place. Luminescence readings were taken using a Viewlux imager (PerkinElmer) with a 2 second exposure time per plate.
This cell line has activated FLT3 receptors, which carries an additional resistance mutation in the kinase domain at D835Y.
as §6, with “D835Y” for “D835Y and MOLM14 F691L”, “mL” for “μL”, “mM)” for “μM)”

Chain of IRAK1 (P51617 whole entry): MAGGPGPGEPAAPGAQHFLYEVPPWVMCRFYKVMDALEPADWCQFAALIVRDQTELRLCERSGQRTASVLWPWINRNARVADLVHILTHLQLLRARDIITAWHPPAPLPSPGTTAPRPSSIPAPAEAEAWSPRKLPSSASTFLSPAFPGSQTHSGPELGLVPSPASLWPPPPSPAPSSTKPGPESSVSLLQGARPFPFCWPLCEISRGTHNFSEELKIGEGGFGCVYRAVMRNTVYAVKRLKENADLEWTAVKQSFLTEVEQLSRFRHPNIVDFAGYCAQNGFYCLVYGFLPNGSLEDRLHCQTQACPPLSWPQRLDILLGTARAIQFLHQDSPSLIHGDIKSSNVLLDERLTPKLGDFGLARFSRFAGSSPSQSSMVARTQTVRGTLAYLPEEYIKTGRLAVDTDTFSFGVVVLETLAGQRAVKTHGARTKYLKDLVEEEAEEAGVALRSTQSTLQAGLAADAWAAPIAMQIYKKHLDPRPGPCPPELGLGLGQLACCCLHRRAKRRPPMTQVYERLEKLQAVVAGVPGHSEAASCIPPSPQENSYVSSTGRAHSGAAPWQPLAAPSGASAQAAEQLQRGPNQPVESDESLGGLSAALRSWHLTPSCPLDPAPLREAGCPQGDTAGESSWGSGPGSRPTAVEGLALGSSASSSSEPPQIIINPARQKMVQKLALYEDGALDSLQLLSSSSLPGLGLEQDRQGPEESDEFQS

IC50 (IRAK4; Table 11)	IC50 (IRAK1; Table 11)	IC50 (MOLM14 D835Y cells; MOLM-14, Table 16, 48 h)	IC50 (MOLM14 D835Y cells; MOLM-14, Table 22, 48 h)	IC50 (IRAK4; Table 17)	IC50 (IRAK1; Table 17)	SMILES
			12 nM	0.8 nM	6 nM	COc1cn2ncc(-c3cncc(N[C@H]4CNCC[C@@H]4F)n3)c2nc1C1CC1 [Compound 12a, 6-(5-cyclopropyl-6-methoxypyrazolo[1,5-a]pyrimidin-3-yl)-N-((3S,4S)-4-fluoropiperidin-3-yl)pyrazin-2-amine]
			4 nM	< 0.5 nM	< 0.5 nM	COc1cn2ncc(-c3nc(N[C@H]4CNC[C@@H]4F)ncc3F)c2nc1C1CC1 [Compound 13a, 4-(5-cyclopropyl-6-methoxypyrazolo[1,5-a]pyrimidin-3-yl)-5-fluoro-N-((3S,4S)-4-fluoropyrrolidin-3-yl)pyrimidin-2-amine]
			1 nM	0.6 nM	0.9 nM	COc1cn2ncc(-c3nc(N[C@@H]4CCCNC4)ncc3F)c2nc1C1CC1 [Compound 14a, (R)-4-(5-cyclopropyl-6-methoxypyrazolo[1,5-a]pyrimidin-3-yl)-5-fluoro-N-(piperidin-3-yl)pyrimidin-2-amine]
			5 nM	0.7 nM	3 nM	COc1cn2ncc(-c3nc(N[C@H]4CNCC[C@@H]4F)ncc3F)c2nc1C(C)(C)O [Compound 6a, 2-(3-(5-fluoro-2-(((3S,4S)-4-fluoropiperidin-3-yl)amino)pyrimidin-4-yl)-6-methoxypyrazolo[1,5-a]pyrimidin-5-yl)propan-2-ol]
			29 nM	1 nM	15 nM	COc1cn2ncc(-c3cncc(N[C@@H]4CCCNC4)n3)c2nc1C1CC1 [Compound 11a, (R)-6-(5-cyclopropyl-6-methoxypyrazolo[1,5-a]pyrimidin-3-yl)-N-(piperidin-3-yl)pyrazin-2-amine]

The remaining lines, values behind:

SMILES	IC50 (IRAK4; Table 11)	IC50 (IRAK1; Table 11)	IC50 (MOLM14 D835Y cells; MOLM-14, Table 16, 48 h)	IC50 (MOLM14 D835Y cells; MOLM-14, Table 22, 48 h)	IC50 (IRAK4; Table 17)	IC50 (IRAK1; Table 17)
COc1cn2ncc(-c3nc(N[C@H]4CNCC[C@@H]4F)c(C#N)cc3F)c2nc1C1CC1 [Compound 7, 6-(5-cyclopropyl-6-methoxypyrazolo[1,5-a]pyrimidin-3-yl)-5-fluoro-2-(((3S,4S)-4-fluoropiperidin-3-yl)amino)nicotinonitrile]	< 0.5 nM	< 0.5 nM				
COc1cn2ncc(-c3nc(N[C@@H]4CCCNC4)ccc3F)c2nc1C1CC1 [Compound 2, (R)-6-(5-cyclopropyl-6-methoxypyrazolo[1,5-a]pyrimidin-3-yl)-5-fluoro-N-(piperidin-3-yl)pyridin-2-amine]	< 0.5 nM	4 nM	2 nM			
COc1cn2ncc(-c3nc(N[C@@H]4CCCNC4)c(C#N)cc3F)c2nc1C(C)(C)O [Compound 9, (R)-5-fluoro-6-(5-(2-hydroxypropan-2-yl)-6-methoxypyrazolo[1,5-a]pyrimidin-3-yl)-2-(piperidin-3-ylamino)nicotinonitrile]	< 0.5 nM	3 nM	16 nM			
COc1cn2ncc(-c3nc(N[C@@H]4CCCNC4)c(F)cc3F)c2nc1C(C)(C)O [Compound 11, (R)-2-(3-(3,5-difluoro-6-(piperidin-3-ylamino)pyridin-2-yl)-6-methoxypyrazolo[1,5-a]pyrimidin-5-yl)propan-2-ol]	1 nM	3 nM	13 nM			
COc1cn2ncc(-c3nc(N[C@H]4CNCC[C@@H]4F)c(F)cc3F)c2nc1C1CC1 [Compound 22, 6-(5-cyclopropyl-6-methoxypyrazolo[1,5-a]pyrimidin-3-yl)-3,5-difluoro-N-((3S,4S)-4-fluoropiperidin-3-yl)pyridin-2-amine]	< 0.5 nM	< 0.5 nM	2 nM			
COc1cn2ncc(-c3nc(N[C@H]4CNC[C@@H]4F)c(F)cc3F)c2nc1C1CC1 [Compound 24, 6-(5-cyclopropyl-6-methoxypyrazolo[1,5-a]pyrimidin-3-yl)-3,5-difluoro-N-((3S,4S)-4-fluoropyrrolidin-3-yl)pyridin-2-amine]	< 0.5 nM	2 nM	2 nM			
COc1cn2ncc(-c3ccc(F)c(N[C@H]4CNCC[C@@H]4F)n3)c2nc1C1CC1 [Compound 6, 6-(5-cyclopropyl-6-methoxypyrazolo[1,5-a]pyrimidin-3-yl)-3-fluoro-N-((3S,4S)-4-fluoropiperidin-3-yl)pyridin-2-amine]	0.6 nM	4 nM	11 nM			
COc1cn2ncc(-c3nc(N[C@@H]4CCCNC4)ncc3F)c2nc1C(C)(C)O [Compound 4a, (R)-2-(3-(5-fluoro-2-(piperidin-3-ylamino)pyrimidin-4-yl)-6-methoxypyrazolo[1,5-a]pyrimidin-5-yl)propan-2-ol]				11 nM	2 nM	4 nM
COc1cn2ncc(-c3ccc(F)c(N[C@@H]4CCCNC4)n3)c2nc1C1CC1 [Compound 5, (R)-6-(5-cyclopropyl-6-methoxypyrazolo[1,5-a]pyrimidin-3-yl)-3-fluoro-N-(piperidin-3-yl)pyridin-2-amine]	3 nM	29 nM	20 nM			
COc1cn2ncc(-c3nc(N[C@H]4CNC[C@@H]4F)c(F)cc3F)c2nc1C(C)(C)O [Compound 12, 2-(3-(3,5-difluoro-6-(((3S,4S)-4-fluoropyrrolidin-3-yl)amino)pyridin-2-yl)-6-methoxypyrazolo[1,5-a]pyrimidin-5-yl)propan-2-ol]	< 0.5 nM	9 nM	32 nM			
COc1cn2ncc(-c3nc(N[C@H]4CNCC[C@@H]4F)c(C#N)cc3F)c2nc1C(C)(C)O [Compound 10, 5-fluoro-2-(((3S,4S)-4-fluoropiperidin-3-yl)amino)-6-(5-(2-hydroxypropan-2-yl)-6-methoxypyrazolo[1,5-a]pyrimidin-3-yl)nicotinonitrile]	< 0.5 nM	2 nM				
